Assay results: patent US6087493A, “Porphyrin compounds as telomerase inhibitors” (Regents of the University of Texas System, priority 1998, dated 2000)
Read-outs that look alike come from different tables or passages of the source.

Legend:
MCF-7 = assay: Cytotoxicity (MTT) MCF-7; format: cell-based, human; settings: mcf-7 cells
Experimental: (§1) The cells were cultured in the presence of the porphyrins incubator for 4-7 days and then treated with 3-(4,5-dimethylthiazol-2-yl)-2,5-diphenyl-tetrazolium bromide (MTT). Formazan concentration was quantitated by absorbance at 570 nm.

Raji = assay: Cytotoxicity (MTT) Raji; format: cell-based, human; settings: raji cells
Experimental: as §1

MDA-231 = assay: Cytotoxicity (MTT) MDA-231; format: cell-based, human; settings: mda-231 cells
Experimental: as §1

HeLa = assay: cells; format: cell-based, human; settings: hela cells
BT-20 = assay: Cytotoxicity (MTT) BT-20; format: cell-based, human; settings: bt-20 cells
Experimental: as §1

[1] = test system: telomere length in MCF7 cells; assay: Telomere length analysis in MCF7 cells; format: cell-based, human
Experimental: DNA was extracted from a minimum of 5×10^6 cells by SDS, proteinase K treatment, then purified and quantitated as previously described (Strahl and Blackburn, 1991). Approximately 1 μg of total DNA was digested with Mse I; the digested DNA was size fractionated by agarose gel electrophoresis and Southern blotted. The blots were hybridized with a ^32 P-labeled 0.5 kb PCR™ DNA fragments composed of the telomere repeat d(TTAGGG), which served as a probe for the telomeres. The hybridized probe was detected by autoradiography and each lane on the film was analyzed by phosphoimage analysis (Molecular Dynamics).
Telomeres shorten at an average rate of 65-100 base pairs per cell division (Counter et al., 1992). To observe a significant effect of an agent on telomere length, e.g., shortening the telomeres by >1 kilobase in MCF7 cells (5.7 kbases), a minimum of […] population doubling times will be required.

NHLF = assay: Cytotoxicity (MTT) NHLF normal lung fibroblasts; format: cell-based; settings: human, nhlf cells
Experimental: as §1
All porphyrins were obtained from Midcentury, Posen, Ill. The experimental work with porphyrins was performed under minimum exposure to light. All human tumor cell lines and normal human breast cells Hs578Bst were purchased from the American Type Culture Collection. Normal human lung fibroblasts NHLF were obtained from Clonetics Corporation. The cell lines were grown according to the suppliers' instructions.

MCF-7M [2] = format: cell-based, human; settings: mcf-7m cells
Experimental: (§2) Cytotoxicity of the compounds to human breast cancer cells in vitro was assessed using a panel of cell lines representing estrogen receptor-positive (BT20, MCF-7m), and a pair of estrogen receptor-negative, transformed breast (11S578t) and normal breast (HS578Bst) cells.

LNCap = assay: Cytotoxicity (MTT) LNCap; format: cell-based, human; settings: lncap cells
Experimental: as §1

MCF-7M [3] = format: cell-based, human; settings: mcf-7m cells; remark: listed apart in the source
Experimental: as §2
(§3) Thy: tritiated […] assay (n = 3 ± SEM)

HS578t = format: cell-based, human; settings: hs578t cells
Experimental: as §2, §3

PC3 = assay: Cytotoxicity (MTT) PC3; format: cell-based, human; settings: pc3 cells
Experimental: as §1

Daudi = assay: cells; format: cell-based, human; settings: daudi cells
Experimental: as §1

sea urchin embryos = settings: in vivo
Experimental: Lytechinus pictus sea urchins were purchased from Marinus Inc. (Long Beach, Calif.) and maintained at 15° C. in refrigerated aquaria containing Instant Ocean synthetic sea water, following a described procedure [Vafa, 1996 #300]. For polyspermic fertilization, 0.01 vol freshly prepared stock sperm suspension (25 ml ASW containing 2 ml undiluted semen) was added to the eggs suspended for 10 min at 1% concentration in ASW adjusted to pH 9.0 with NH4 OH and stirred at 60 rpm with motor-driven Teflon paddles. Ten min after insemination, the fertilized eggs were allowed to settle, and the supernatant ASW containing sperm was aspirated and replaced with fresh ASW. The embryos were cultured at 18° C. Twenty min after fertilization TMPyP4 or TMPyP4.Pt^II (100 μM final concentration) was added from a concentrated stock in DMSO to 1% embryo suspensions. Equivalent amounts of DMSO (final 0.1%) were added to control egg suspensions. At measured times after insemination, the embryos were pelleted by centrifugation and resuspended in Carnoy's fixative (ethanol:acetic acid, 3:1) for at least 1 hr. After fixation the embryos were pelleted and resuspended successively in: (1) ethanol:acetic acid, 1:1 for 5-15 min: (2) 45% acetic acid for 5-15 min; (3) room temperature 1 N HCl for 1-2 min: (4) 60° C. 1 N HCl for 7-8 min; (5) room temperature 1 N HCl for 1-2 min; (6) Schiffs reagent for 90-120 min; and (7) 45% acetic acid before affixing the embryos to microscope slides. Embryo samples were placed on microscope slides, covered with coverslips, and frozen on a bed of dry ice. After at least 30 min, the coverslips were popped off using a razor blade and the slides were immediately plunged into Coplin jars containing 95% ethanol for 5-10 min. The slides were then transferred to Coplin jars containing 100% ethanol for 3-5 min. After removing the slides and allowing them to air dry, the embryos were mounted with one drop Permount (Fisher) under a coverglass.
The inventors examined whether treatment of the embryos with G-quadroplex interactive agents can cause observable chromosomal abnormalities. A time course of the embryo development was followed in the presence of 10 μM and 100 μM concentrations of TMPyP4 or TMPyP4.Pt^II.

DU145 = assay: Cytotoxicity (MTT) DU145; format: cell-based, human; settings: du145 cells
Experimental: as §1

human telomerase = human telomerase (Homo sapiens, UniProt O14746); assay: Telomerase inhibition, primer extension assay in HeLa cell extract; format: biochemical
[4] = test system: MCF7 human breast carcinoma cells (telomerase activity); assay: Telomerase activity in intact MCF7 cells cultured with porphyrin; format: cell-based
Experimental: To determine the long-term effects of TMPyP4 on whole cells, MCF7 breast carcinoma cells were cultured in the continuous presence of 1, 10, and 100 μM TMPyP4. The porphyrin solution was freshly added to the medium from the concentrated stock at each passage of the cells (every 3-4 days). On days 4, 8, and 15, the cells were lysed and the telomerase activity was measured in the extracts.
Breast cancer cells MCF-7m, BT20, HS578t and normal HS578Bst cells were grown in culture in T75 flasks (10^6 cells/flask). […] The cells were harvested and freeze-thawed and the extracts used to measure telomerase activity using the Dynabeads method.

human telomerase, sequence (O14746 whole entry): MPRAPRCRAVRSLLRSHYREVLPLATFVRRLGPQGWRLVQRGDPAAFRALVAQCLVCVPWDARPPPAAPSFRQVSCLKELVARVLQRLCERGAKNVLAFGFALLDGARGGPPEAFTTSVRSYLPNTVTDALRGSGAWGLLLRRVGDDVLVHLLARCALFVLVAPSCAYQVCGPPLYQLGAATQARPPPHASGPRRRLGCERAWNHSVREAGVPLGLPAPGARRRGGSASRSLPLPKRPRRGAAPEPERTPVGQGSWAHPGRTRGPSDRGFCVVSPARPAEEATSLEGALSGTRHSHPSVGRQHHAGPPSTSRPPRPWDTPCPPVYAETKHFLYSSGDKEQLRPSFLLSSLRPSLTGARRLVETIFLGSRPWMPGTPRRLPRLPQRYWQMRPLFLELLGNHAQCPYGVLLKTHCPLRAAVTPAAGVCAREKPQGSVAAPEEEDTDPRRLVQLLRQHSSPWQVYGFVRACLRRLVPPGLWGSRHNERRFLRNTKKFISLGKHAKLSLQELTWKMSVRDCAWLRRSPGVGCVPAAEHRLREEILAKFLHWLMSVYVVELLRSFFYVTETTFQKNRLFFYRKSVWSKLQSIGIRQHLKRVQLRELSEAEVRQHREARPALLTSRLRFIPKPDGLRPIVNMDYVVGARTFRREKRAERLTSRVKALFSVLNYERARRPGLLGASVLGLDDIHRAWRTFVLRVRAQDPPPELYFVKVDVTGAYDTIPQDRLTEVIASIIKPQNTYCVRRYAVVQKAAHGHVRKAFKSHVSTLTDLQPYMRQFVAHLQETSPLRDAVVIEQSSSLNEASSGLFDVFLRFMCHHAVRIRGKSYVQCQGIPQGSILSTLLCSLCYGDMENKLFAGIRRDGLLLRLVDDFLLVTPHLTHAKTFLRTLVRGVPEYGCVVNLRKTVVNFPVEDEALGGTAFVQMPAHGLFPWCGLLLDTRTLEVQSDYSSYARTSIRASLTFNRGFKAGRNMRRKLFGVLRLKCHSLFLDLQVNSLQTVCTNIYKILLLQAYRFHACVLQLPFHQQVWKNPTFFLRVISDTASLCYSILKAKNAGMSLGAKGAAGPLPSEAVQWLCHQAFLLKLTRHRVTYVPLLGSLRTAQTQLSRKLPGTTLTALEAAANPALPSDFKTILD

C[n+]1ccc(-c2c3nc(c(-c4cc[n+](C)cc4)c4ccc([n-]4)c(-c4cc[n+](C)cc4)c4nc(c(-c5cc[n+](C)cc5)c5ccc2[n-]5)C=C4)C=C3)cc1.[Cl-].[Cl-].[Cl-].[Cl-].[Pt+2] [TMPyP4 PtII, Platinum(II)tetra(N-methyl-4-pyridyl)porphyrin chloride]
IC50 (MCF-7): > 100 µM
IC50 (Raji): 64.6 µM
IC50 (MDA-231): > 100 µM
IC50 (HeLa): 136 ± 34.8 µM
IC50 (BT-20): 262 µM
effect on telomere shortening [1]: No detectable effects on telomere shortening
CC50 (NHLF): 11.6 µM
IC50 (MCF-7M [2]): 74.8 ± 31.9 µM
IC50 (LNCap): 42.2 µM
IC50 (MCF-7M [3]): 434 ± 386 µM
IC50 (HS578t): 214 ± 49 µM
IC50 (PC3): > 200 µM
IC50 (Daudi): 104 µM
cell number and morphology of embryos (sea urchin embryos): fewer cells, many very misshapen and variable in size relative to the controls
condensed chromosome length / chromosomal effects (sea urchin embryos): Qualitatively similar results
differences from controls in embryos (sea urchin embryos): no definitive differences were seen
first signs of ciliary motility (sea urchin embryos): 9 h
toxicity to embryos (sea urchin embryos): generally non-toxic to the embryos
IC50 (DU145): 1360 µM
% Inhibition of telomerase (human telomerase; 25 µM): 69%
IC50 (human telomerase; read-out: Telomerase Inhibition): 15 µM
telomerase activity in intact MCF7 cells [4]: less potent inhibitor than TMPyP4
